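96-well plates; 48 h exposure; 5 concentrations. Endpoints by linear interpolation between flanking doses. Not reached: highest tested concentration assigned. At the GI50, growth is halved.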 Activity calls are given as the source filed them. No stated cut-off is given here; in the data, active = GI50 up to about 1.1 µM and inactive = higher.
What was measured:
Assay in all cases: NCI-60 cell line screen, 48 h
786-0 = tested on: 786-0
A549 = tested on: A549
ACHN = tested on: ACHN
BT-549 = tested on: BT-549
CAKI-1 = tested on: CAKI-1
CCRF-CEM = tested on: CCRF-CEM
COLO 205 = tested on: COLO 205
DU-145 = tested on: DU-145
EKVX = tested on: EKVX
HCC 2998 = tested on: HCC 2998
HCT-116 = tested on: HCT-116
HCT-15 = tested on: HCT-15
HL-60 = tested on: HL-60
HOP-62 = tested on: HOP-62
HOP-92 = tested on: HOP-92
HT-29 = tested on: HT-29
Hs-578T = tested on: Hs-578T
IGROV-1 = tested on: IGROV-1
K562 = tested on: K562
KM12 = tested on: KM12
LOX IMVI = tested on: LOX IMVI
M14 = tested on: M14
MCF7 = tested on: MCF7
MDA-MB-231 = tested on: MDA-MB-231
MDA-MB-435 = tested on: MDA-MB-435
MDA-N = tested on: MDA-N
MOLT-4 = tested on: MOLT-4
Malme-3M = tested on: Malme-3M
NCI-H226 = tested on: NCI-H226
NCI-H23 = tested on: NCI-H23
NCI-H460 = tested on: NCI-H460
NCI-H522 = tested on: NCI-H522
NCI/ADR-RES = tested on: NCI/ADR-RES
OVCAR-3 = tested on: OVCAR-3
OVCAR-4 = tested on: OVCAR-4
OVCAR-5 = tested on: OVCAR-5
OVCAR-8 = tested on: OVCAR-8
PC-3 = tested on: PC-3
RPMI-8226 = tested on: RPMI-8226
RXF 393 = tested on: RXF 393
SF-268 = tested on: SF-268
SF-295 = tested on: SF-295
SF-539 = tested on: SF-539
SK-MEL-5 = tested on: SK-MEL-5
SK-OV-3 = tested on: SK-OV-3
SN12C = tested on: SN12C
SNB-19 = tested on: SNB-19
SR = tested on: SR
SW-620 = tested on: SW-620
T47D = tested on: T47D
TK-10 = tested on: TK-10
U-251 = tested on: U-251
UACC-257 = tested on: UACC-257
UACC-62 = tested on: UACC-62
UO-31 = tested on: UO-31

## Cc1ccc(S(=O)(=O)NNC(=O)c2cc(C)ccc2NC(=O)C23CC4CC(CC(C4)C2)C3)cc1
786-0
  GI50: 21.9 µM (inactive)
A549
  GI50: 29.4 µM (inactive)
ACHN
  GI50: 21.1 µM (inactive)
BT-549
  GI50: > 100 µM (inactive)
CAKI-1
  GI50: 46 µM (inactive)
CCRF-CEM
  GI50: > 100 µM (inactive)
COLO 205
  GI50: > 100 µM (inactive)
DU-145
  GI50: 29.6 µM (inactive)
EKVX
  GI50: 60 µM (inactive)
HCC 2998
  GI50: 30.1 µM (inactive)
HCT-116
  GI50: 31.2 µM (inactive)
HCT-15
  GI50: 22.7 µM
HL-60
  GI50: 66.8 µM (inactive)
HOP-62
  GI50: 29.3 µM (inactive)
HOP-92
  GI50: 21.6 µM (inactive)
HT-29
  GI50: > 100 µM (inactive)
Hs-578T
  GI50: 32.9 µM (inactive)
IGROV-1
  GI50: 12.6 µM (inactive)
K562
  GI50: > 100 µM (inactive)
KM12
  GI50: 75.3 µM (inactive)
LOX IMVI
  GI50: > 100 µM (inactive)
M14
  GI50: 84.7 µM (inactive)
MCF7
  GI50: 37.2 µM (inactive)
MDA-MB-231
  GI50: 41.6 µM (inactive)
MDA-MB-435
  GI50: 61.9 µM (inactive)
MDA-N
  GI50: > 100 µM (inactive)
MOLT-4
  GI50: > 100 µM (inactive)
Malme-3M
  GI50: 23.5 µM (inactive)
NCI-H226
  GI50: 60.7 µM (inactive)
NCI-H23
  GI50: 36.1 µM (inactive)
NCI-H460
  GI50: 43.8 µM (inactive)
NCI-H522
  GI50: 20.2 µM (inactive)
NCI/ADR-RES
  GI50: 38.5 µM (inactive)
OVCAR-3
  GI50: 34.4 µM (inactive)
OVCAR-4
  GI50: 27.7 µM (inactive)
OVCAR-5
  GI50: > 100 µM (inactive)
OVCAR-8
  GI50: 45.7 µM (inactive)
PC-3
  GI50: 34.5 µM (inactive)
RPMI-8226
  GI50: > 100 µM (inactive)
RXF 393
  GI50: 25.4 µM (inactive)
SF-268
  GI50: 41.7 µM (inactive)
SF-295
  GI50: 45.5 µM (inactive)
SF-539
  GI50: 52.1 µM (inactive)
SK-MEL-5
  GI50: 61.5 µM (inactive)
SK-OV-3
  GI50: 22.6 µM (inactive)
SN12C
  GI50: 44.4 µM (inactive)
SNB-19
  GI50: 16.9 µM (inactive)
SR
  GI50: 84.5 µM (inactive)
SW-620
  GI50: 92.9 µM (inactive)
T47D
  GI50: 22.2 µM (inactive)
TK-10
  GI50: 41.8 µM (inactive)
U-251
  GI50: 27.6 µM (inactive)
UACC-257
  GI50: 25.4 µM (inactive)
UACC-62
  GI50: 39.7 µM (inactive)
UO-31
  GI50: 21.6 µM (inactive)

Source: ChEMBL document CHEMBL1201862, “PubChem BioAssay data set” (2004)
